Experimental data taken from patent US9624208B2, “Benzoxazolinone compounds with selective activity in voltage-gated sodium channels” (Merck Sharp & Dohme Corp., priority 2012, dated 2017).

How the values were obtained:
human Nav1.5 = molecular target: T1, human Nav1.5 (Homo sapiens, UniProt Q14524); test: PatchXpress sodium current measurement, inactivated state block, Nav1.5; type: cell-based; conditions: determined by PatchXpress measurement, HEK 293 cells
T1 construct: expressed in transfected cells
Method: (§1) Cell Based Assays for Nav 1.7 and Nav 1.5 Activity
(§2) Compounds were tested on human Nav1.7 and Nav1.5 channels stably expressed in HEK 293 cells.
(§3) Sodium Current Measurements on the PatchXpress 7000:
(§4) To measure inactivated state block of sodium channels, test compounds were characterized in an automated PatchXpress® assay (Molecular Devices) using a double-pulse protocol on human Nav1.7 and Nav1.5 channels stably expressed in HEK 293 cells. Cells were held at a potential 20 mV negative to the potential at which ˜50% of the channels are inactivated. A 8000 ms pre-pulse 7 mV positive to the potential at which ˜50% of the channels are inactivated was given followed by a hyperpolarizing 2 ms pulse to −120 mV and a 20 ms test pulse to −20 mV. The protocol was applied to cells in the absence, presence of compound and after washout. The temperature of PatchXpress® instruments was maintained at 22° C. The following recording solutions were used. Internal solution (mM): 30 CsCl, 5 HEPES, 10 EGTA, 120 CsF, 5 NaF, 2 MgCl2, pH 7.3 with CsOH. External solution (mM): 120 NMDG, 40 NaCl, 1 KCl, 0.5 MgCl2, 5 HEPES, 2.7 CaCl2, pH 7.5 with NMDG-OH. Estimated IC50 values were calculated based on at least two compound concentrations tested. For all electrophysiology experiments, offline analysis was used to correct for current rundown and to determine percent inhibition as a function of drug concentration. IC50 values were determined by fitting to the Hill equation.

human Nav1.7 = molecular target: T2, human Nav1.7 (Homo sapiens, UniProt Q15858); test: PatchXpress sodium current measurement, inactivated state block, Nav1.7; type: cell-based; conditions: channels stably expressed in HEK 293 cells, double-pulse protocol, 22° C., read-out: potency for the Nav 1.7 sodium ion channel (1.7=)
T2 construct: expressed in transfected cells
Method: as §1, §2, §3, §4

T2 sequence (Q15858 whole entry): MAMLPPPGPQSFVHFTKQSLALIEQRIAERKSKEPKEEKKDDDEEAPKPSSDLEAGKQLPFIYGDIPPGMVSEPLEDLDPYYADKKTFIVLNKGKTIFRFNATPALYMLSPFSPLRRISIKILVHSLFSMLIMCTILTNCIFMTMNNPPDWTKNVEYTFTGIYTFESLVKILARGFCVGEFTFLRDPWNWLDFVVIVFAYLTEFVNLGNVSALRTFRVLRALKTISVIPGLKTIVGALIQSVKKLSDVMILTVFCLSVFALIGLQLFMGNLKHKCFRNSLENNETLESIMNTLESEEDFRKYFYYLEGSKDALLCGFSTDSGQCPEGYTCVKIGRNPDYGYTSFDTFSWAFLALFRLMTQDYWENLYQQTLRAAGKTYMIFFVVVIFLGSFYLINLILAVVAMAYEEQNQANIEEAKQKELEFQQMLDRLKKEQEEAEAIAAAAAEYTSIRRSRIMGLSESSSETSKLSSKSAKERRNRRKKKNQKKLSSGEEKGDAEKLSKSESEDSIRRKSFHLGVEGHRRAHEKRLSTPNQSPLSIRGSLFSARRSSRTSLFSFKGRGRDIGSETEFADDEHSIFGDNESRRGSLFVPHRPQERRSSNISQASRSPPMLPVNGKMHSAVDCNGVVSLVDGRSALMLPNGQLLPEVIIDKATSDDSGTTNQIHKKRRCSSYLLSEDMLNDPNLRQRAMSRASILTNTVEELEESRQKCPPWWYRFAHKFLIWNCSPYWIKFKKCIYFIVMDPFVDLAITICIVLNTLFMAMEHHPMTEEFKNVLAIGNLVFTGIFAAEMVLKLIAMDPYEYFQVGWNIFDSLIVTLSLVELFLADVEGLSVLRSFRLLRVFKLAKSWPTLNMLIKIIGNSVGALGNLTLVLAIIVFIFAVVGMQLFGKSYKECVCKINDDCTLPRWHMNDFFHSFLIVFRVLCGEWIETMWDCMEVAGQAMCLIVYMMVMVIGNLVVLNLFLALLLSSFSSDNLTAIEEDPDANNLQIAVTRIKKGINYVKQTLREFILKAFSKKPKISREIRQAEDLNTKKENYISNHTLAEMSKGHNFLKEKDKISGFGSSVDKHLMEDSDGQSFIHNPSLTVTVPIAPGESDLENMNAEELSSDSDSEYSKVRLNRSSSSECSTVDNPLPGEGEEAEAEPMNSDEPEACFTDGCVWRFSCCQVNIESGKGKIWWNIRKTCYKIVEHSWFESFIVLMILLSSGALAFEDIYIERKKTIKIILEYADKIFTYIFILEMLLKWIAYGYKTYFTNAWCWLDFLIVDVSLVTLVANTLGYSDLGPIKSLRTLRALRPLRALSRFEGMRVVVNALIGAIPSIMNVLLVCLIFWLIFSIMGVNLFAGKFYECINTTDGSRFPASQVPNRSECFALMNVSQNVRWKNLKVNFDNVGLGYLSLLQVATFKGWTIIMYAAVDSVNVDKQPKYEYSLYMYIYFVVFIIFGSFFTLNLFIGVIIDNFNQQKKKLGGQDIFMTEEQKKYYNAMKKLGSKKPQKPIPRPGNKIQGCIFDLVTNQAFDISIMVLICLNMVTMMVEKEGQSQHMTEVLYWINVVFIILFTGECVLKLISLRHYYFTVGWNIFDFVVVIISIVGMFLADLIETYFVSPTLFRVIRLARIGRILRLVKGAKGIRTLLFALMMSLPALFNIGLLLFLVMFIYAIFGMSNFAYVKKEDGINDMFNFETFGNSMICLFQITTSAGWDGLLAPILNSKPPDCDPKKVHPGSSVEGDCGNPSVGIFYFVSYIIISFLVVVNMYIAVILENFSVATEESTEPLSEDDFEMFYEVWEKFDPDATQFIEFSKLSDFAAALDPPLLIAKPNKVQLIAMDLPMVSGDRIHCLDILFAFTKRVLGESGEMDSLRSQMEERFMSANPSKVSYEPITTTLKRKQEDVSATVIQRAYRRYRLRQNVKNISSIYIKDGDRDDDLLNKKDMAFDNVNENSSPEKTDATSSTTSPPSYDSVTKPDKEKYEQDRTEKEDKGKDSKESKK
T1 sequence (Q14524 whole entry): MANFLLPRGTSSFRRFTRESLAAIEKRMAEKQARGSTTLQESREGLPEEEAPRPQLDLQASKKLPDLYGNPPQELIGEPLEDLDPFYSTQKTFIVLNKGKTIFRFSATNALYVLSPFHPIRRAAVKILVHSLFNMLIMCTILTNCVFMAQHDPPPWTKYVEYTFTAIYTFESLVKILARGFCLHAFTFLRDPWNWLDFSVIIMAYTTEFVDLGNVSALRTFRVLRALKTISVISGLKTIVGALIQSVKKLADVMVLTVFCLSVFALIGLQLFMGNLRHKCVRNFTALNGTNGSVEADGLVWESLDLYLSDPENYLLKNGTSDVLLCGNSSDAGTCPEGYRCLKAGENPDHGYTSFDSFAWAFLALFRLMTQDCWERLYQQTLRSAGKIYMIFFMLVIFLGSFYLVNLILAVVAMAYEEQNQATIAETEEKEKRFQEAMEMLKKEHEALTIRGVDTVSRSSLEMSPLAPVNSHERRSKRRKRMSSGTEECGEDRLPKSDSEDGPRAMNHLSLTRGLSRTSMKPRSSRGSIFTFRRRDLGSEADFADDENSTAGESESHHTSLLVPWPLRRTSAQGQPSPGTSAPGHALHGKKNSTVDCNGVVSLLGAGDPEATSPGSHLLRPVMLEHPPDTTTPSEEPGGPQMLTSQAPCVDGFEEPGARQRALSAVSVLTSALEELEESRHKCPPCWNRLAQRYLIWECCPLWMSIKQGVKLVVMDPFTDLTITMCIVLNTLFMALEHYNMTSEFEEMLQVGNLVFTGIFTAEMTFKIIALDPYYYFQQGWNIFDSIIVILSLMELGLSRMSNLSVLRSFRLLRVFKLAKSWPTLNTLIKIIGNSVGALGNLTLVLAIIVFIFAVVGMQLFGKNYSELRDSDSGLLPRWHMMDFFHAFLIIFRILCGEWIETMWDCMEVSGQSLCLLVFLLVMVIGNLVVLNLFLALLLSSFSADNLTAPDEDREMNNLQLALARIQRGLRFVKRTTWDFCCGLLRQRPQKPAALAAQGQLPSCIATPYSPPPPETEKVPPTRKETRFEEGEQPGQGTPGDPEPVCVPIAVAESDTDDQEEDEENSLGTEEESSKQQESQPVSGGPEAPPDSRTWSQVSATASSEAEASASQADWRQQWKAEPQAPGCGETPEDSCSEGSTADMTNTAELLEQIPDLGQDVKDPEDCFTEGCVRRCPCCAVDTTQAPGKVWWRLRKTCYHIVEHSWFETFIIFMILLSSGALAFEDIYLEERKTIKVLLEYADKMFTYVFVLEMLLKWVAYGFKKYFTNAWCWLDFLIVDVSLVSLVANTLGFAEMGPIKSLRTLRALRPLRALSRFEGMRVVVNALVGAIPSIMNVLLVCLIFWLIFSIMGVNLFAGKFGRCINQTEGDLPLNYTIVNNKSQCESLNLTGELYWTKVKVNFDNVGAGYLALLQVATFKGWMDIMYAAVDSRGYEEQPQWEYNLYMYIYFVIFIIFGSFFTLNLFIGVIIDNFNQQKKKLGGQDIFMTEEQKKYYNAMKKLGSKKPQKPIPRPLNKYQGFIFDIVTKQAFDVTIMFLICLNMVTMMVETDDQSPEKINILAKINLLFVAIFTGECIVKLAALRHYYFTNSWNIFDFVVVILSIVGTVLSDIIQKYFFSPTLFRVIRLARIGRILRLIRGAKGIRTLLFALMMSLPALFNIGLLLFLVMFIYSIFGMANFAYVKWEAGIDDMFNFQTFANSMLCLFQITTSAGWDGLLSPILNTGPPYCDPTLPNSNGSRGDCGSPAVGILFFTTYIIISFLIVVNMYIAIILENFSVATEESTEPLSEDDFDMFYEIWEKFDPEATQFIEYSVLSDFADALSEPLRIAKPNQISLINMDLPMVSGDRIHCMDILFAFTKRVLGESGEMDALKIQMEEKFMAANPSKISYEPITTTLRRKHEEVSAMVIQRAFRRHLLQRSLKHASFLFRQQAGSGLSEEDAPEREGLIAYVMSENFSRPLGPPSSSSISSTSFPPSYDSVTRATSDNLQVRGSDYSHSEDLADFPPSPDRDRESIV

IC50 (human Nav1.7) [nM]	SMILES	ratio of Nav 1.5:Nav 1.7 potency (human Nav1.5)
69	Cc1cc2c(cc1S(=O)(=O)Nc1cccc(F)n1)oc(=O)n2[C@H](C)c1cccc(Br)c1C [Ex18-7, 3-[(1R)-1-(3-bromo-2-methylphenyl)ethyl]-N-(6-fluoropyridin-2-yl)-5-methyl-2-oxo-2,3-dihydro-1,3-benzoxazole-6-sulfonamide]	90
107	Cc1cc2c(cc1S(=O)(=O)Nc1cccc(F)n1)oc(=O)n2[C@H](C)c1cccc(C)c1Br [Ex18-8, 3-[(1R)-1-(2-bromo-3-methylphenyl)ethyl]-N-(6-fluoropyridin-2-yl)-5-methyl-2-oxo-2,3-dihydro-1,3-benzoxazole-6-sulfonamide]	102
9	Cc1cccc([C@@H](C)n2c(=O)oc3cc(S(=O)(=O)Nc4cccc(F)n4)c(F)cc32)c1CN [Ex19-1, 3-{(1R)-1-[2-(aminomethyl)-3-methylphenyl]ethyl}-5-fluoro-N-(6-fluoropyridin-2-yl)-2-oxo-2,3-dihydro-1,3-benzoxazole-6-sulfonamide]	603
14	Cc1cc2c(cc1S(=O)(=O)Nc1cccc(F)n1)oc(=O)n2[C@H](C)c1cccc(C)c1CN [Ex19-2, 3-{(1R)-1-[2-(aminomethyl)-3-methylphenyl]ethyl}-N-(6-fluoropyridin-2-yl)-5-methyl-2-oxo-2,3-dihydro-1,3-benzoxazole-6-sulfonamide]	133
482	C[C@H](c1cccc(CN)c1)n1c(=O)oc2cc(S(=O)(=O)Nc3cccc(F)n3)c(F)cc21 [Ex19-5, 3-{(1R)-1-[3-(aminomethyl)phenyl]ethyl}-5-fluoro-N-(6-fluoropyridin-2-yl)-2-oxo-2,3-dihydro-1,3-benzoxazole-6-sulfonamide]	96
103	C[C@H](c1cccc(CCN)c1)n1c(=O)oc2cc(S(=O)(=O)Nc3cccc(F)n3)c(F)cc21 [Ex19-11, 3-{(1R)-1-[3-(2-aminoethyl)phenyl]ethyl}-5-fluoro-N-(6-fluoropyridin-2-yl)-2-oxo-2,3-dihydro-1,3-benzoxazole-6-sulfonamide]	244
154	Cc1c(CCN)cccc1[C@@H](C)n1c(=O)oc2cc(S(=O)(=O)Nc3cccc(F)n3)c(F)cc21 [Ex19-12]	195
98	C[C@H](c1ccccc1C1CCCN1)n1c(=O)oc2cc(S(=O)(=O)Nc3cccc(F)n3)c(F)cc21 (stereo partly drawn) [Ex20-1, 5-fluoro-N-(6-fluoropyridin-2-yl)-2-oxo-3-{(1R)-1-[2-(pyrrolidin-2-yl)phenyl]ethyl}-2,3-dihydro-1,3-benzoxazole-6-sulfonamide]	120
35	Cc1cccc([C@@H](C)n2c(=O)oc3cc(S(=O)(=O)Nc4cccc(F)n4)c(F)cc32)c1C1CCCN1 (stereo partly drawn) [Ex20-2, 5-fluoro-N-(6-fluoropyridin-2-yl)-3-{(1R)-1-[3-methyl-2-(pyrrolidin-2-yl)phenyl]ethyl}-2-oxo-2,3-dihydro-1,3-benzoxazole-6-sulfonamide]	272
243	C[C@H](c1cccc(C2CCCN2)c1)n1c(=O)oc2cc(S(=O)(=O)Nc3cccc(F)n3)c(F)cc21 (stereo partly drawn) [Ex20-3, 5-fluoro-N-(6-fluoropyridin-2-yl)-2-oxo-3-{(1R)-1-[3-(pyrrolidin-2-yl)phenyl]ethyl}-2,3-dihydro-1,3-benzoxazole-6-sulfonamide]	218
229	C[C@H](c1cccc(C#CC(C)(C)N)c1)n1c(=O)oc2cc(S(=O)(=O)Nc3cccc(F)n3)c(F)cc21 [Ex21-1, 3-{(1R)-1-[3-(3-amino-3-methylbut-1-yn-1-yl)phenyl]ethyl}-5-fluoro-N-(6-fluoropyridin-2-yl)-2-oxo-2,3-dihydro-1,3-benzoxazole-6-sulfonamide]	151
245	CNCC#Cc1cccc([C@@H](C)n2c(=O)oc3cc(S(=O)(=O)Nc4cccc(F)n4)c(F)cc32)c1 [Ex21-2, 5-fluoro-N-(6-fluoropyridin-2-yl)-3-[(1R)-1-{3-[3-(methylamino)prop-1-yn-1-yl]phenyl}ethyl]-2-oxo-2,3-dihydro-1,3-benzoxazole-6-sulfonamide]	122
808	C[C@H](c1cccc(C#CCN(C)C)c1)n1c(=O)oc2cc(S(=O)(=O)Nc3cccc(F)n3)c(F)cc21 [Ex21-3, 3-[(1R)-1-{3-[3-(dimethylamino)prop-1-yn-1-yl]phenyl}ethyl]-5-fluoro-N-(6-fluoropyridin-2-yl)-2-oxo-2,3-dihydro-1,3-benzoxazole-6-sulfonamide]	37
226	C[C@H](c1cccc(C#CC2(N)CCCCC2)c1)n1c(=O)oc2cc(S(=O)(=O)Nc3cccc(F)n3)c(F)cc21 [Ex21-4, 3-[(1R)-1-{3-[(1-aminocyclohexyl)-ethynyl]phenyl}ethyl]-5-fluoro-N-(6-fluoropyridin-2-yl)-2-oxo-2,3-dihydro-1,3-benzoxazole-6-sulfonamide]	45
885	CC(N)C#Cc1cccc([C@@H](C)n2c(=O)oc3cc(S(=O)(=O)Nc4cccc(F)n4)c(F)cc32)c1 (stereo partly drawn) [Ex21-5, 3-{(1R)-1-[3-(3-aminobut-1-yn-1-yl)phenyl]ethyl}-5-fluoro-N-(6-fluoropyridin-2-yl)-2-oxo-2,3-dihydro-1,3-benzoxazole-6-sulfonamide]	34
382	C[C@H](c1cccc(C#CCNC2CCCCC2)c1)n1c(=O)oc2cc(S(=O)(=O)Nc3cccc(F)n3)c(F)cc21 [Ex21-6, 3-[(1R)-1-{3-[3-(cyclohexylamino)prop-1-yn-1-yl]phenyl}ethyl]-5-fluoro-N-(6-fluoropyridin-2-yl)-2-oxo-2,3-dihydro-1,3-benzoxazole-6-sulfonamide]	27
337	C[C@H](c1cccc(C#CCN2CCCC2)c1)n1c(=O)oc2cc(S(=O)(=O)Nc3cccc(F)n3)c(F)cc21 [Ex21-7, 5-fluoro-N-(6-fluoropyridin-2-yl)-2-oxo-3-[(1R)-1-{3-[3-(pyrrolidin-1-yl)prop-1-yn-1-yl]phenyl}ethyl]-2,3-dihydro-1,3-benzoxazole-6-sulfonamide]	89
407	C[C@H](c1cccc(C#CC2CCCCN2)c1)n1c(=O)oc2cc(S(=O)(=O)Nc3cccc(F)n3)c(F)cc21 (stereo partly drawn) [Ex21-9, 5-fluoro-N-(6-fluoropyridin-2-yl)-2-oxo-3-{(1R)-1-[3-(piperidin-2-ylethynyl)phenyl]ethyl}-2,3-dihydro-1,3-benzoxazole-6-sulfonamide]	74
342	C[C@H](c1cccc(C#CC2CCCN2)c1)n1c(=O)oc2cc(S(=O)(=O)Nc3cccc(F)n3)c(F)cc21 (stereo partly drawn) [Ex21-10, 5-fluoro-N-(6-fluoropyridin-2-yl)-2-oxo-3-{(1R)-1-[3-(pyrrolidin-2-ylethynyl)phenyl]ethyl}-2,3-dihydro-1,3-benzoxazole-6-sulfonamide]	88
189	C[C@H](c1cccc(C#CCN2CCNCC2)c1)n1c(=O)oc2cc(S(=O)(=O)Nc3cccc(F)n3)c(F)cc21 [Ex21-11, 5-fluoro-N-(6-fluoropyridin-2-yl)-2-oxo-3-[(1R)-1-{3-[3-(piperazin-1-yl)prop-1-yn-1-yl]phenyl}ethyl]-2,3-dihydro-1,3-benzoxazole-6-sulfonamide]	137
258	C[C@H](c1cccc(C#CC2(N)CC2)c1)n1c(=O)oc2cc(S(=O)(=O)Nc3cccc(F)n3)c(F)cc21 [Ex21-12, 3-[(1R)-1-{3-[(1-aminocyclopropyl)ethynyl]phenyl}ethyl]-5-fluoro-N-(6-fluoropyridin-2-yl)-2-oxo-2,3-dihydro-1,3-benzoxazole-6-sulfonamide]	116
116	C[C@H](c1cccc(C#CCN2CCC2)c1)n1c(=O)oc2cc(S(=O)(=O)Nc3cccc(F)n3)c(F)cc21 [Ex21-13, 3-[(1R)-1-{3-[3-(azetidin-1-yl)prop-1-yn-1-yl]phenyl}ethyl]-5-fluoro-N-(6-fluoropyridin-2-yl)-2-oxo-2,3-dihydro-1,3-benzoxazole-6-sulfonamide]	258
234	C[C@H](c1cccc(C#CCN2CCN(C)CC2)c1)n1c(=O)oc2cc(S(=O)(=O)Nc3cccc(F)n3)c(F)cc21 [Ex21-14, 5-fluoro-N-(6-fluoropyridin-2-yl)-3-[(1R)-1-{3-[3-(4-methylpiperazin-1-yl)prop-1-yn-1-yl]phenyl}ethyl]-2-oxo-2,3-dihydro-1,3-benzoxazole-6-sulfonamide]	134
